Measurements reported in patent US5827836A, “Retinoid glycerol phospholipid conjugates” (Clarion Pharmaceuticals Inc., priority 1996, dated 1998).
Read-outs that look alike come from different tables or passages of the source.

Assays:
[1] = tested on: human tumor cell line HL-60; assay: HL-60 cell proliferation (in vitro HL-60 cell inhibition assay, SRB); assay type: cell-based; details: particularly against leukemia
Description: (§1) Use of the HL-60 cell line in evaluating the anti-tumor activity of retinoids is reported in the literature, for example, see Janick-Buckner, D. et al.,FASEB J. 5:320-325; 1991
(§2) 1. Human tumor cell line HL-60 (ATCC CCL 240), obtainable from the American Type Culture Collection (ATCC), a promyelocytic leukemia cell line.
(§3) 2. Culture media: Roswell Park Memorial Institute-1640 (RPMI-1640) plus 10% Fetal Bovine Serum (FBS).
(§4) 3. Standard protocol for culturing cell lines: in T-75 or T-150 flasks; 37° C.; 95% air, 5% CO2; 100% humidity.
(§5) a. The HL 60 cell line is passaged by removing approximately 75% of the media and cell mixture and adding an equal amount of fresh media once or twice a week.
b. […]
j. Read absorbance at 562 nm using a standard 96-well microtiter plate reader. Absorbance readings are linear with dye concentrations below 1.8 absorbance units. To reduce absorbance, decrease wavelength at which measurements are taken;
single point reading; the higher the absorbance, the higher the cell number; […]
initial control cell number (ICCN)-no test compound present in culture medium, end point determined at the time of treatment;
final control cell number (FCCN)-no test compound present in culture medium, end point determined at 72 hours after treatment;
final cell number (FCN)-test compound present in culture medium, end point determined at 72 hours after treatment; […]

[2] = tested on: human tumor cell line HL-60; assay: HL-60 cell viability (trypan blue exclusion); assay type: cell-based; details: for cell viability (in words): HL-60, compared to retinoic acid; for viability at 10 µM / viability at 30 µM / viability at 100 µM: Homo sapiens
Description: as §1, §2, §3, §4, §5
b. All procedures are performed aseptically in a Class II biological safety cabinet using standard BL-2 containment procedures. At approximately monthly intervals, fresh cells are thawed from liquid nitrogen storage in order to prevent genetic drift in stock cell lines.
a. after cell passage, count cells with a hemacytometer;
b. adjust concentration to approximately 20,000 cells per 100 μL;
C. pipette 100 μL cell suspension per well of a standard 96-well microtiter plate;
d. add test compound dissolved in phosphate buffered saline (PBS), or in DMSO for the comparative compound, retinoic acid, for final concentration levels ranging from 0 to 100 μM;
e. adjust volume to 200 μL/well by adding RPMI-1640;; and
f. incubate 72 hours under standard culture conditions and determine end points.
6. End Point 2: Cell Viability:
a. Add 100 μL/well of 0.5% (w/v) trypan blue in PBS.
b. Using a hemacytometer, determine the percent viable cells by calculating the ratio of cells that exclude trypan blue to the total number of cells.

[3] = tested on: PAM-212 murine keratinocyte cell line; assay: Anti-psoriatic activity by inhibition of keratinocyte proliferation (PAM-212, SRB); assay type: cell-based, murine (BALB/c mice); details: for minimal effective concentration: Mus musculus, PAM212, PAM-212, 72 hours, FIG. 2, read-out: concentration at which marked inhibition of cell growth is seen; for inhibition of keratinocyte proliferation (in words): in vitro
Description: Assay for Anti-psoriatic Activity by Inhibition of Keratinocyte Proliferation:
1. Cell line: PAM-212 murine keratinocyte cell line isolated and cultivated from newborn BALB/c mice (see S. H. Yuspa et al., Cancer Research, 40, 4694-4703, December, 1980) that appears to retain many characteristics of normal keratinocytes.
2. Culture medium: 1:1 DMEM and Ham's F-12 with 10% FBS.
3. Standard protocol for culturing cell lines; in T-75 or T-150 flasks; 37° C.; 95% air, 5% CO2; 100% humidity. Cell line PAM-212 is passaged when approximately 80% confluent; with trypsin (1 mg/mL) and EDTA (1 mM EDTA in Ca-Mg free Hank's balanced salt solution); at a 1:4 to 1:5 split.
a. All procedures are performed aseptically in a Class II biological safety cabinet using standard BL-2 containment procedures. At approximately monthly intervals, fresh cells are thawed from liquid nitrogen storage in order to prevent genetic drift in stock cell lines.
After cell passage, count cells with a hemacytometer;
a. Adjust concentration to approximately 1,000 cells per 100 μL;
b. Pipette 100 μL cell suspension per well of a standard 96-well microtiter plate;
c. Preincubate 24 hours to allow cells to attach;
d. Add test compound dispersed in phosphate buffered saline (PBS), or in DMSO for the comparative compound, retinoic acid, to achieve final concentration levels ranging from 0 to 100 μM;
e. Adjust volume to 200 μL/well by adding DMEM/F12; and
f. Incubate 72 hours under standard culture conditions and determine end points.
Remove media and add 100 μL/well of cold (4° C.) 10% (w/v) trichloroacetic acid (TCA) in water;
a. After 1 hour at 4° C., remove TCA and rinse cells 5 times with tap water;
c. Add 50 μL/well of 0.4% (w/v) sulforhodamine B (SRB) in 1% (v/v) acetic acid in water;
d. After 30 minutes at room temperature, rinse cells 4 times with 1% (v/v) acetic acid in water to remove residual stain;
f. Dissolve stain by adding 100 μL/well of unbuffered Tris base, pH 10.5;
g. Read absorbance at 562 nm using a standard 96-well microtiter plate reader. Absorbance readings are linear with dye concentrations below 1.8 absorbance units. To reduce absorbance, decrease wavelength at which measurements are taken.
single point reading; the higher the absorbance, the higher the cell number;
a. background-no cell and no test compound present in culture medium;
b. control-no test compound present in culture medium;
c. initial control cell number (ICCN)-no test compound present in culture medium, end point determined at the time of treatment;
d. final control cell number (FCCN)-no test compound present in culture medium, end point determined at 72 hours after treatment;
e. final cell number (FCN)-test compound present in culture medium, end point determined at 72 hours after treatment;
ICCN=A(control, zero hour)-A(background) […]

[4] = tested on: RAW 264.7 murine monocyte/macrophage line; assay: Anti-inflammatory activity by inhibition of macrophage chemiluminescence (respiratory burst, PMA-stimulated, luminol); assay type: cell-based; details: for minimal effective concentration: PMA-stimulated RAW 264.7, read-out: concentration at which marked inhibition of luminescence is seen
Source text: Assay for Anti-inflammatory Activity by Inhibition of Macrophage Chemiluminescence
The RAW 264.7 cell line (available from the ATCC under accession no. TIB 71) is a murine monocyte/macrophage line the cells of which show many of the differentiative functions of a macrophage. Like macrophages, the cells are capable of phagocytosis and undergo an oxidative burst (increased oxygen consumption) and production of oxygen radicals (e.g., superoxide) in response to appropriate signals. Agents that inhibit the activation of these cells in vitro, so as to inhibit the respiratory burst and corresponding production of oxygen radicals associated with the activation, are therefore inhibitors of macrophage activation and critical steps in inflammatory processes. These agents are likely, then to be anti-inflammatories.
The respiratory burst and corresponding production of oxygen radicals that accompany macrophage activation can be measured in a variety of ways, including chemiluminescence based on the reaction of the oxygen radicals with luminol added to the culture medium (see M. A. Trush et al, 1978, "The Generation of Chemiluminescence by Phagocytic Cells." Methods in Enzymology 57: 462-494). Indeed, chemiluminescence generated from luminol in the culture medium of macrophage cell lines is recognized in the art as a marker of macrophage activation.
Cell line: RAW 264.7 (ATCC TIB 71);
1. Culture medium: DMEM with 5% FBS (attachment dependent);
2. Standard protocol for culturing cell lines: in T-75 or T-150 flasks; 37° C.; 95% air, 5% CO2; 100% humidity;
3. Cell lines are passaged when approximately 80% confluent; with trypsin (1 mg/mL) and EDTA ([…] in Ca-Mg free Hank's balanced salt solution); at a 1:4 to 1:5 split;
4. Trypsinize the cells and count with a hemacytometer;
5. Adjust concentration of cells to approximately 1,000,000 cells per mL;
6. Suspend cells in DMEM lacking phenol red and without FBS;
7. Pipette 1 mL into a standard luminometer cuvet (12×75), commercially obtainable from Analytical Luminescence Laboratories, San Diego;
8. Add luminol to final concentration of 1 μM;
9. Add test compound (0, 1, 3, 10, 30 μM);
10. Add 100 nanograms of phorbol myristate acetate (PMA);
11. Wait 1 minute and read photo counts (i.e., luminescence) on a Monolight 2010 luminometer available from Analytical Luminescence Laboratories;
The results are represented in Table 2, which illustrates the marked inhibition of luminescence by the compounds tested (CPR 2003 and CPR 2004) at concentrations above 3 μM. Results are calculated as percent of control (no test compound present).

[5] = R. Andreesen, Prog. Biochem. Pharmacol., 22, 118-131; cited from earlier work
[6] = Liposome formation in PBS; assay type: physicochemical; details: sonication
Source text: Solutions of the subject compounds of Formula (I) in PBS (phisphate-buffered saline) have characteristics indicative of the presence of liposomes. These preparations require sonication in order to form uniform, cloudy suspensions. The requirement for sonication and the cloudy appearance of the suspensions are some known properties of liposomal preparations. Additionally, foam generation, which is associated with micellar suspensions, is not a property of these preparations.

[7] = RAW264.7, PMA-stimulated mouse macrophages, 1 μM, read-out: % Inhibition of respiratory burst
[8] = RAW264.7, PMA-stimulated mouse macrophages, 3 μM, read-out: % Inhibition of respiratory burst
[9] = RAW264.7, PMA-stimulated mouse macrophages, 10 μM, read-out: % Inhibition of respiratory burst
[10] = RAW264.7, PMA-stimulated mouse macrophages, 30 μM, read-out: % Inhibition of respiratory burst
[11] = Mus musculus, RAW264.7, read-out: % Inhibition of respiratory burst

Row | Structure (SMILES) | anti-tumor or anti-cancer activity (in words) [1] | cell viability (in words) [2] | viability at 10 µM ([2]; HL-60, 72 h) | viability at 30 µM ([2]; HL-60, 72 h) | viability at 100 µM ([2]; HL-60, 72 h) | minimal effective concentration [3] | inhibition of keratinocyte proliferation (in words) [3] | reduction of macrophage activation (in words) [4] | minimal effective concentration ([4]; Mus musculus, RAW264.7) | inhibition at 1 µM [4, 7] | inhibition at 3 µM [4, 8] | inhibition at 10 µM [4, 9] | inhibition at 30 µM [4, 10] | also measured
1 | CCCCCCCCCCCCCCCCCCOCC(COP(=O)([O-])OCC[N+](C)(C)C)OC(=O)/C=C(C)/C=C/C=C(C)/C=C/C1=C(C)CCCC1(C)C (stereo not drawn) [CPR 2003, 1-O-n-Octadecyl-2-(all-trans-retinoyl)-glycero-3-phosphocholine] | marked anti-tumor or anti-cancer activity | relatively high cell viability | 97% | 93% | 97% | > 1 µM | markedly inhibit proliferation of these cells in vitro | markedly reduce macrophage activation | > 3 µM | 19% | 40% | 81% | 99% | 
2 | CCCCCCCCCCCCCCCCCCOC[C@H](COP(=O)([O-])OCC[N+](C)(C)C)OC [ET 18-OCH3, 1-O-octadecyl-2-O-methyl-sn-glycero-3-phosphocholine] |  |  |  |  |  |  |  |  |  |  |  |  |  | anti-tumor activity (in words) [5]: markedly potent anti-tumor activity
3 | CCCCCCCCCCCCCCCCCCOCC(COC(=O)/C=C(C)/C=C/C=C(C)/C=C/C1=C(C)CCCC1(C)C)OP(=O)([O-])OCC[N+](C)(C)C (stereo not drawn) [CPR 2004, 1-O-n-Octadecyl-3-(all-trans-retinoyl)-glycero-2-phosphocholine] | marked anti-tumor or anti-cancer activity | relatively high cell viability | 92% | 94% | 59% | > 10 µM | markedly inhibit proliferation of these cells in vitro | markedly reduce macrophage activation | > 3 µM | 14% | 55% | 93% | 99% | 
4 | CC1=C(/C=C/C(C)=C/C=C/C(C)=C/C(=O)O)C(C)(C)CCC1 [Retinoic Acid, retinoic acid, reference compound] |  |  |  |  |  |  |  |  |  |  |  |  |  | viability at 10 µM ([2]; HL-60, 10 μM, 72 hours, read-out: % Viability): 87%; viability at 30 µM ([2]; HL-60, 30 μM, 72 hours, read-out: % Viability): 70%; viability at 100 µM ([2]; HL-60, 100 μM, 72 hours, read-out: % Viability): 0%; inhibition at 1 µM [4, 11]: 2%; inhibition at 3 µM [4, 11]: 6%; inhibition at 10 µM [4, 11]: 3%; inhibition at 30 µM [4, 11]: 6%; liposome formation (in words) [6]: unlike retinoic acid, the subject compounds are capable of forming liposomes
